Data reported in patent US20200024246A1, “POGOSTONE DERIVATIVES AND METHODS OF USING THE SAME” (Hamyard Associates LLC, priority 2018, published 2020).

System: adult female Aedes aegypti
Assay: Topical combination of Formula 13 with synthetic insecticides (FIGS. 6-9)
Format: in vivo
Method: A low-dose concentration of Formula 13 (500 μg/mL) was applied in combination with chlorfenapyr (75 μg/mL), dibrom (10 μg/mL), thiamethoxam (100 μg/mL), and permethrin (2.5 μg/mL) to the pronotum of adult female Aedes aegypti in 0.2 μL of acetone. These concentrations were chosen as they produced little-to-no mortality at 24 hours after application. Knockdown (immobilization) was recorded at 1 hour after application and mortality was recorded at 24, 48, and 72 hours after initial application. These applications were run in parallel to a topical application of a combined mixture of 500 μg/mL Formula 13 and 75 μg/mL of chlorfenpayr to the pronotum of adult female mosquitoes. For this experiment, total of 25 mosquitoes were treated within each replicate, with a minimum of 3 replicates utilized for each treatment. Synergism was defined as the higher percentage mortality in the insecticidal combination of both Formula 13 and chlorfenapyr compared to each individual component applied by itself.

CC(C)CCC(=O)c1c(O)c2ccccc2oc1=O [Formula 13]
mortality at 500 µg/mL (Aedes aegypti, 24 h, read-out: 24-hr percentage mortality): 11.2%
percentage mortality at 24 hour (chlorfenapyr 75 ug/mL, Formula 13 500 ug/mL, alone or combined, words): very low mortality
